Here are results for 22 compounds from patent publication US8912181B2 (Taiho Pharmaceutical Co., Ltd., priority 2011, dated 2014).

Assay [1] has as its target human HSP90 alpha protein (N-terminal, amino acids 2 to 236) (Homo sapiens (Human), UniProt P07900). Kind of assay: Determination of HSP90-binding activity (AlphaScreen competitive assay with biotinylated geldanamycin). As to conditions: inhibition of binding of biotinylated geldanamycin to purified HSP90 N-terminal protein, read-out: HSP-binding activity IC50. Here is the method:
First, a purified HSP90 solution was prepared as follows: a human HSP90 alpha gene (NCBI Reference Sequence accession no. NM-005348) region corresponding to amino acids 2 to 236 of human HSP90 alpha protein (NCBI Reference Sequence accession no. NP-005339; full length: 732 amino acids) was inserted to pET-19b (Novagen; Merck KGaA) to construct a plasmid pET-HS[…] for expression of the HSP90 N-terminal protein having a His-tag at the N-terminus. E. coli (BL21(DE3), Stratagene Corp.) was transformed with pET-HS[…] and then cultured at 37° C. for 4 hours in the presence of 0.5 mM isopropyl-beta-D-thiogalactopyranoside (Sigma-Aldrich Corp.). The collected E. coli was suspended in a lysis buffer (50 mM Tris-HCl (pH 7.5), 200 mM NaCl) and sonicated. The sonicated cell solution was centrifuged (40,000×g, 20 minutes), and the supernatant was used as a crude extract. This crude extract was fractionated using Ni Sepharose High Performance (GE Healthcare Japan Corp.) chromatography and HiLoad 26/60 Superdex 75 pg (GE Healthcare Japan Corp.). Then, a fraction of HSP90 protein concentrates was prepared in a solution containing 50 mM Tris-HCl (pH 7.5) and 20% glycerol as a purified HSP90 solution. The purified HSP90 solution was divided and stored at -80° C. until use. HSP90-binding activity was determined by an AlphaScreen competitive assay system. […] After reaction at room temperature for 2 hours, biotinylated geldanamycin was added thereto at a concentration of 40 nM/well and further reacted for 1 hour. Detection mix (20 mM HEPES-KOH (pH 7.5), 0.5% BSA, 0.04 mg/mL Nickel Chelate Acceptor beads, 0.04 mg/mL Streptavidin-coated Donor beads) (#6760619C, PerkinElmer, Inc.) was added to each well in an amount equal to the amount of the reaction solution and reacted at room temperature for 1 hour in the dark. Then, fluorescence intensity was measured using Multilabel Plate Reader EnVision (PerkinElmer, Inc.). Percent inhibition (%) of the binding of biotinylated geldanamycin by each compound of the present invention was determined according to the formula shown below with the fluorescence signal of no test substance addition group as a control. […] Percent inhibition (%)=(C-T)/C×100, wherein T: Signal of well with test substance addition C: Signal of well without test substance addition.
Background: In Alpha technology, singlet oxygen from a donor bead excites a nearby acceptor bead.

The next assay deals with SK-BR-3 cells. Kind of assay: Determination of cell growth inhibition (crystal violet staining method). Type of assay: cell-based. The note with it: Homo sapiens; breast cancer cells SK-BR-3, 72 hours culture with test substance. The method, then: Cell growth was assayed by a crystal violet staining method. SK-BR-3 cells (HTB-30) purchased from American Type Culture Collection were inoculated at a concentration of 5,000 cells/well to a 96-well plate (#353075, BD Biosciences). After culture at 37° C. for 24 hours in a 5% CO2 incubator, each test substance was added thereto, and the cells were further cultured for 72 hours. A 25% glutaraldehyde solution (#17025-25, Nacalai Tesque, Inc.) was added thereto at a concentration of 20 μL/well per 200 μL of the medium, and the plate was incubated at room temperature for 20 minutes to fix the cells. The plate was washed with water and dried. Then, a solution containing 0.05% crystal violet (#038-17792, Wako Pure Chemical Industries, Ltd.) and 20% methanol was added thereto at a concentration of 100 μL/well, and the plate was incubated at room temperature for 20 minutes to stain the cells. The plate was washed with water and dried. A mixed solution of 0.05 M NaH2PO4 and ethanol (mixed in equal amounts) was added thereto at a concentration of 100 μL/well. Absorbance was measured at 540 nm using a microplate reader (MTP-450, Corona Electric Co., Ltd.) and used as an index for the number of cells per well. Percent inhibition (%) of cell growth by each compound of the present invention was determined according to the formula shown below with the absorbance of no drug addition group as a control. […] Percent inhibition (%)=(C−T)/C×100, wherein T: Absorbance of well with test substance addition C: Absorbance of well without test substance addition.

What is called IC50 is the midpoint of a concentration-inhibition curve.

On to `Cn1cc(-c2cn(-c3cccc4c(-c5ccc(C(N)=O)c(NC(C)(C)C)c5)nc(C(F)(F)F)nc34)cn2)cn1` [Example 79, 2-(Tert-butylamino)-4-(8-(4-(1-methyl-1H-pyrazol-4-yl)-1H-imidazol-1-yl)-2-(trifluoromethyl)quinazolin-4-yl)benzamide], for which the IC50 in assay [1] was 320 nM; with SK-BR-3 cells, 20 nM.

In the case of `Cn1cc(-c2cn(-c3cccc4c(-c5ccc(C(N)=O)c(NCC6CCCO6)c5)nccc34)cn2)cn1` (stereo not shown) [Example 59, 4-(5-(4-(1-Methyl-1H-pyrazol-4-yl)-1H-imidazol-1-yl)isoquinolin-1-yl)-2-((tetrahydrofuran-2-yl)methylamino)benzamide], the IC50 was found to be 100 nM in assay [1] and 90 nM in the assay with SK-BR-3 cells.

As to `CC(C)(C)Nc1cc(-c2cc(C(F)(F)F)nc3c(-n4cnc(-c5ccccc5)c4)cccc23)ccc1C(N)=O` [Example 107, 2-(Tert-butylamino)-4-(8-(4-phenyl-1H-imidazol-1-yl)-2-(trifluoromethyl)quinolin-4-yl)benzamide], in the assay with SK-BR-3 cells, it took 240 nM to reach half-maximal inhibition (IC50).

On to `NC(=O)c1ccc(-c2nccc3c(-c4cnc5nccnc5c4)cccc23)cc1NC1CCC(O)CC1` (stereo not shown) [Example 13, 2-(4-Hydroxycyclohexylamino)-4-(5-(pyrido[2,3-b]pyrazin-7-yl)isoquinolin-1-yl)benzamide], for which the IC50 in assay [1] is 450 nM; in the assay on SK-BR-3 cells, 580 nM.

Take `NC(=O)c1ccc(-c2nccc3c(-c4cnc5ccccc5c4)cccc23)cc1NC1CCC(O)CC1` (stereo not shown) [Example 6, 2-(4-Hydroxycyclohexylamino)-4-(5-(quinolin-3-yl)isoquinolin-1-yl)benzamide]: the IC50 in assay [1] was determined as 170 nM; with SK-BR-3 cells, 30 nM.

On to `NC(=O)c1ccc(-c2cc(C(F)(F)F)nc3c(-n4cnc(-c5cccnc5)c4)cccc23)cc1N` [Example 78, 2-Amino-4-(8-(4-(pyridin-3-yl)-1H-imidazol-1-yl)-2-(trifluoromethyl)quinolin-4-yl)benzamide], for which the half-maximal inhibitory concentration (IC50) was 180 nM in assay [1] and 30 nM in the assay with SK-BR-3 cells.

Turning to `CC(C)Cn1cc(-c2cn(-c3cccc4c(-c5ccc(C(N)=O)c(NC6CCC(O)CC6)c5)nccc34)cn2)cn1` (stereo not shown) [Example 52, 2-(4-Hydroxycyclohexylamino)-4-(5-(4-(1-isobutyl-1H-pyrazol-4-yl)-1H-imidazol-1-yl)isoquinolin-1-yl)benzamide], the IC50 with SK-BR-3 cells was 110 nM.

In the assay with SK-BR-3 cells, `NCC(=O)OC1CCC(Nc2cc(-c3nccc4c(-c5cnc6ccccc6c5)cccc34)ccc2C(N)=O)CC1` (stereo not shown) [Example 33, 4-(2-Carbamoyl-5-(5-(quinolin-3-yl)isoquinolin-1-yl)phenylamino)cyclohexyl-2-aminoacetate] showed a half-maximal inhibitory concentration (IC50) of 80 nM.

In turn, `CCNc1cc(-c2nccc3c(-n4cnc(-c5cnn(C)c5)c4)cccc23)ccc1C(N)=O` [Example 1, 2-(Ethylamino)-4-(5-(4-(1-methyl-1H-pyrazol-4-yl)-1H-imidazol-1-yl)isoquinolin-1-yl)benzamide] came in with an IC50 with SK-BR-3 cells of 120 nM.

As to `Cc1ccc(-c2cn(-c3cccc4c(-c5ccc(C(N)=O)cc5C)cc(C(F)(F)F)nc34)cn2)cn1` [Example 100, 3-Methyl-4-(8-(4-(6-methylpyridin-3-yl)-1H-imidazol-1-yl)-2-(trifluoromethyl)quinolin-4-yl)benzamide], the 50% inhibitory concentration (IC50) in assay [1] turned out to be 340 nM; in the assay with SK-BR-3 cells, 260 nM.

As to `NC(=O)c1ccc(-c2cc(C(F)(F)F)nc3c(-n4cnc(-c5cccnc5)c4)cccc23)cn1` [Example 88, 5-(8-(4-(Pyridin-3-yl)-1H-imidazol-1-yl)-2-(trifluoromethyl)quinolin-4-yl)picolinamide], the results for the IC50 (in assay [1]; in the assay on SK-BR-3 cells) were 350 nM and 70 nM, respectively.

For `CC(C)(C)Nc1cc(-c2cc(C(F)(F)F)nc3c(-c4cnc5ccccc5c4)cccc23)ccc1C(N)=O` [Example 5, 2-(Tert-butylamino)-4-(2′-(trifluoromethyl)-3,8′-biquinolin-4′-yl)benzamide], the figures for the IC50 (in assay [1]; with SK-BR-3 cells) were 1440 nM and 90 nM, respectively.

Regarding `CC(C)(C)Nc1cc(-c2cc(C(F)(F)F)nc3c(-n4cnc(-c5cccnc5)c4)cccc23)ccc1C(N)=O` [Example 76, 2-(Tert-butylamino)-4-(8-(4-(pyridin-3-yl)-1H-imidazol-1-yl)-2-(trifluoromethyl)quinolin-4-yl)benzamide], the figures for the IC50 (in assay [1]; in the assay with SK-BR-3 cells) were 200 nM and 40 nM, respectively.

On to `Cn1cc(-c2cn(-c3cccc4c(-c5ccc(C(N)=O)c(N)c5)nc(C(F)(F)F)nc34)cn2)cn1` [Example 4, 2-Amino-4-(8-(4-(1-methyl-1H-pyrazol-4-yl)-1H-imidazol-1-yl)-2-(trifluoromethyl)quinazolin-4-yl)benzamide], for which the IC50 in assay [1] worked out at 340 nM; with SK-BR-3 cells it was 280 nM.

For `CCNc1cc(-c2cc(C(F)(F)F)nc3c(-n4cnc(-c5cnn(C)c5)c4)cccc23)ccc1C(N)=O` [Example 3, 2-(Ethylamino)-4-(8-(4-(1-methyl-1H-pyrazol-4-yl)-1H-imidazol-1-yl)-2-(trifluoromethyl)quinolin-4-yl)benzamide], the IC50 in assay [1] was 190 nM; with SK-BR-3 cells it was 10 nM.

`CC(C)c1cc(-c2ccc(C(N)=O)c(NC(C)(C)C)c2)c2cccc(-n3cnc(-c4cnn(C)c4)c3)c2n1` [Example 112, 2-(Tert-butylamino)-4-(2-isopropyl-8-(4-(1-methyl-1H-pyrazol-4-yl)-1H-imidazol-1-yl)quinolin-4-yl)benzamide]: the IC50 was 500 nM in assay [1] and 20 nM in the assay with SK-BR-3 cells.

In the assay with SK-BR-3 cells, `NC(=O)c1ccc(-c2nccc3c(-n4cnc(Br)c4)cccc23)cc1NC1CCC(O)CC1` (stereo not shown) [Example 54, 4-(5-(4-Bromo-1H-imidazol-1-yl)isoquinolin-1-yl)-2-(4-hydroxycyclohexylamino)benzamide] returned an IC50 of 480 nM.

Regarding `CCNc1cc(-c2cc(C(F)(F)F)nc3c(-n4cnc(-c5cnn(C(F)F)c5)c4)cccc23)ccc1C(N)=O` [Example 91, 4-(8-(4-(1-Difluoromethyl-1H-pyrazol-4-yl)-1H-imidazol-1-yl)-2-(trifluoromethyl)quinolin-4-yl)-2-(ethylamino)benzamide], in the assay on SK-BR-3 cells, the IC50 was 10 nM.

As to `NC(=O)c1ccc(-c2nccc3c(-c4cncc(N)c4)cccc23)cc1NC1CCC(O)CC1` (stereo not shown) [Example 2, 4-(5-(5-Aminopyridin-3-yl)isoquinolin-1-yl)-2-(4-hydroxycyclohexylamino)benzamide], the IC50 with SK-BR-3 cells came out at 150 nM.

Regarding `Cn1cc(-c2cn(-c3cccc4c(-c5ccc(C(N)=O)c(N)c5)cc(C5CC5)nc34)cn2)cn1` [Example 106, 2-Amino-4-(2-cyclopropyl-8-(4-(1-methyl-1H-pyrazol-4-yl)-1H-imidazol-1-yl)quinolin-4-yl)benzamide], in assay [1], the IC50 was 100 nM.

Consider `Cn1cc(-c2cn(-c3cccc4c(-c5ccc(C(N)=O)c(NC6CCCCCC6)c5)nccc34)cn2)cn1` [Example 63, 2-(Cycloheptylamino)-4-(5-(4-(1-methyl-1H-pyrazol-4-yl)-1H-imidazol-1-yl)isoquinolin-1-yl)benzamide], for which it took 30 nM to reach half-maximal inhibition in the assay on SK-BR-3 cells (IC50).

Consider `Cn1cc(-c2cn(-c3cccc4c(-c5ccc(C(N)=O)c(NCC6CC6)c5)cc(C(F)(F)F)nc34)cn2)cn1` [Example 65, 2-(Cyclopropylmethylamino)-4-(8-(4-(1-methyl-1H-pyrazol-4-yl)-1H-imidazol-1-yl)-2-(trifluoromethyl)quinolin-4-yl)benzamide], for which, in the assay on SK-BR-3 cells, half-maximal inhibition (IC50) was put at 10 nM.
